Measurements taken from PubChem BioAssay (NCI).
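In this assay, cells in 96-well plates receive the compound at five concentrations for 48 hours. Endpoints are linearly interpolated between the surrounding concentrations. TGI: concentration producing complete growth inhibition.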

Columns and labels:
Assay in all cases: NCI-60 cell line screen, 48 h
[1] = system: 786-0 renal
[2] = system: A549 NSCLC
[3] = system: ACHN renal
[4] = system: CAKI-1 renal
[5] = system: CCRF-CEM leukemia
[6] = system: COLO 205 colon
[7] = system: DLD-1 colon
[8] = system: DMS 114 small cell lung
[9] = system: DMS 273 small cell lung
[10] = system: HCT-116 colon
[11] = system: HCT-15 colon
[12] = system: HL-60(TB) leukemia
[13] = system: HOP-18 NSCLC
[14] = system: HOP-62 NSCLC
[15] = system: HOP-92 NSCLC
[16] = system: HT29 colon
[17] = system: IGROV1 ovarian
[18] = system: K-562 leukemia
[19] = system: KM12 colon
[20] = system: KM20L2 colon
[21] = system: LOX IMVI melanoma
[22] = system: LXFL 529 NSCLC
[23] = system: M14 melanoma
[24] = system: M19-MEL melanoma
[25] = system: MALME-3M melanoma
[26] = system: MOLT-4 leukemia
[27] = system: NCI-H226 lung
[28] = system: NCI-H23 lung
[29] = system: NCI-H460 lung
[30] = system: NCI-H522 lung
[31] = system: OVCAR-3 ovarian
[32] = system: OVCAR-4 ovarian
[33] = system: OVCAR-5 ovarian
[34] = system: OVCAR-8 ovarian
[35] = system: RPMI-8226 leukemia
[36] = system: RXF 393 renal
[37] = system: SF-268 CNS
[38] = system: SF-295 CNS
[39] = system: SF-539 CNS
[40] = system: SK-MEL-2 melanoma
[41] = system: SK-MEL-28 melanoma
[42] = system: SK-MEL-5 melanoma
[43] = system: SK-OV-3 ovarian
[44] = system: SN12C renal
[45] = system: SNB-19 CNS
[46] = system: SNB-75 CNS
[47] = system: SNB-78 CNS
[48] = system: SW-620 colon
[49] = system: TK-10 renal
[50] = system: U251 CNS
[51] = system: UACC-257 melanoma
[52] = system: UACC-62 melanoma
[53] = system: UO-31 renal
[54] = system: XF 498 CNS
[55] = system: A498 renal
[56] = system: EKVX NSCLC
[57] = system: HCC-2998 colon

With CN(C(=O)c1cccs1)C(=S)N1CCN(c2ccccn2)CC1 the TGI [1] was > 100 µM, the TGI [2] was > 100 µM and the TGI [3] was > 100 µM. The TGI [4] was > 100 µM, the TGI [5] was > 100 µM and the TGI [6] was > 100 µM. For the same molecule, the TGI [7] was > 100 µM, the TGI [8] was > 100 µM and the TGI [9] was > 100 µM. The TGI [10] was > 100 µM, the TGI [11] was > 100 µM and the TGI [12] was > 100 µM. For the same molecule, the TGI [13] was > 100 µM, the TGI [14] was > 100 µM and the TGI [15] was > 100 µM. The TGI [16] was > 100 µM, the TGI [17] was > 100 µM and the TGI [18] was > 100 µM. For the same molecule, the TGI [19] was > 100 µM, the TGI [20] was > 100 µM and the TGI [21] was > 100 µM. The TGI [22] was > 100 µM, the TGI [23] was > 100 µM and the TGI [24] was > 100 µM. The TGI [25] was > 100 µM, the TGI [26] was > 100 µM and the TGI [27] was > 100 µM. The TGI [28] was > 100 µM, the TGI [29] was > 100 µM and the TGI [30] was > 100 µM. The TGI [31] was > 100 µM, the TGI [32] was > 100 µM and the TGI [33] was > 100 µM. The TGI [34] was > 100 µM, the TGI [35] was > 100 µM and the TGI [36] was > 100 µM. For the same molecule, the TGI [37] was > 100 µM, the TGI [38] was > 100 µM and the TGI [39] was > 100 µM. For the same molecule, the TGI [40] was > 100 µM, the TGI [41] was > 100 µM and the TGI [42] was > 100 µM. For the same molecule, the TGI [43] was > 100 µM, the TGI [44] was > 100 µM and the TGI [45] was > 100 µM. For the same molecule, the TGI [46] was > 100 µM, the TGI [47] was > 100 µM and the TGI [48] was > 100 µM. For the same molecule, the TGI [49] was > 100 µM, the TGI [50] was > 100 µM and the TGI [51] was > 100 µM. The TGI [52] was > 100 µM, the TGI [53] was > 100 µM and the TGI [54] was > 100 µM.
With CCC(C)NC1=C(NC(C)=O)C(=O)c2ccccc2C1=O (stereo not given) the TGI [1] was > 7.5 µM, the TGI [55] was > 75 µM and the TGI [2] was > 75 µM. The TGI [3] was > 75 µM, the TGI [4] was > 75 µM and the TGI [5] was > 75 µM. The TGI [6] was > 75 µM, the TGI [7] was > 75 µM and the TGI [8] was > 75 µM. For the same molecule, the TGI [9] was > 75 µM, the TGI [56] was > 75 µM and the TGI [57] was > 75 µM. For the same molecule, the TGI [10] was > 75 µM, the TGI [11] was > 75 µM and the TGI [12] was 43.1 µM. For the same molecule, the TGI [13] was > 75 µM, the TGI [14] was > 75 µM and the TGI [15] was > 75 µM. For the same molecule, the TGI [16] was > 75 µM, the TGI [17] was > 75 µM and the TGI [18] was > 75 µM. For the same molecule, the TGI [19] was > 75 µM, the TGI [20] was > 75 µM and the TGI [21] was 40 µM. For the same molecule, the TGI [22] was > 75 µM, the TGI [23] was > 75 µM and the TGI [24] was > 75 µM. The TGI [25] was > 75 µM, the TGI [26] was > 75 µM and the TGI [27] was > 75 µM. The TGI [28] was > 75 µM, the TGI [29] was > 75 µM and the TGI [31] was > 75 µM. For the same molecule, the TGI [32] was > 75 µM, the TGI [33] was > 75 µM and the TGI [34] was > 75 µM. For the same molecule, the TGI [35] was 37.9 µM, the TGI [36] was > 75 µM and the TGI [37] was > 75 µM. The TGI [38] was > 75 µM, the TGI [39] was > 75 µM and the TGI [40] was > 75 µM. The TGI [41] was > 75 µM, the TGI [42] was > 75 µM and the TGI [43] was > 75 µM. For the same molecule, the TGI [44] was > 75 µM, the TGI [45] was > 75 µM and the TGI [46] was > 75 µM. For the same molecule, the TGI [47] was > 75 µM, the TGI [48] was > 75 µM and the TGI [49] was > 75 µM. The TGI [50] was > 75 µM, the TGI [51] was > 75 µM and the TGI [52] was > 75 µM. The TGI [53] was > 75 µM and the TGI [54] was > 75 µM.
